We go through three compounds from patent publication EP1477174B1, “Radioactive arsenic-containing compounds and their uses in the treatment of tumors” (TTY Biopharm Company Limited, priority 2003, dated 2004).

“And” between values parts separate entries of the source, which are not always exact repeats. Equal entries are not always repeated.

Data set [1] concerns relapsed acute promyelocytic leukemia. The conditions noted are these: cited from earlier work.
For data set [2], the system named is N1-S1 rat hepatoma cells. The data set is described as follows: Therapeutic effect assessment: liver tumor direct injection, rats with liver tumors. In kind it is in vivo, Spawn-Dawley rats. Set-up: key to Response: Increase in Size of tumor (In%) is classified as "Poor Response"; decrease in size of tumorwithin 0%∼40% is classified as "MildResponse"; decrease in size of tumor to 50% or more or disappearance of tumor is classified as "Good Response.". The note with it: for Response / Survival time: 0.45 mg/kg direct into liver tumor, single animals. The procedure: (§1) When cultured to 1.5x10^6 cell/ml, 4x10^6 cell/0.06ml of N1-S1 cells were sampled and then implanted into Spawn-Dawley male rats (5-week-old, 150g) between the liver and liver capsule by surgery, and the wounds were closed by sutures. Rearing of the rats was continued for ten days, and ultrasonic scanning was used to detect any growth of liver tumor and tumor size. After scanning, animals that had developed liver tumors were used to conduct the experiments of tumor growth inhibition, and euthanasia was practiced on the rest of the rats.
The rats with liver tumors were subjected to surgery. After the locations of the liver tumors were found, the tumors were directly injected with normal saline, an injection containing arsenic trioxide without neutron irradiation treatment (concentration: 1 mg/ml; animal injection dosage: 0.45 mg/kg), and the injection prepared in Example 1 which contained radioactive arsenic trioxide having subjected to neutron irradiation treatment (radiation activity range: 2.77-3.25 mCi/ml; concentration: 1 mg/ml of concentration; and animal injection dosage: 0.45 mg/kg), respectively, once every week, twice in total.
(§2) Before injection, the size of the liver tumors was examined by ultrasonic scanning. Ultrasonic scanning was conducted in the first week, the second week, and the fifth week, respectively, after start of the injection to observe the change in size of the tumor. Finally, the rats were sacrificed for observing whether there was metastasis.

Data set [3] concerns N1-S1 rat hepatoma cells. The data set is described as follows: Therapeutic effect assessment: continuous tail vein injection, rats with liver tumors. The class given is in vivo, Spawn-Dawley rats. Set-up: key to Response: Increase in size of tumor (In%) is classified as "Poor Response"; decrease in size of tumorwithin 0%∼40% is classified as "MildResponse"; decrease in size of tumor to 50% or more or disappearance of tumor is classified as "Good Response.". The conditions noted are these: for Response / Survival time: 0.45 mg/kg tail vein, continued for two weeks, single animals; for Effect on the inhibition of tumor growth (in words): continuous tail vein injection; for Survival of the rats (in words): tail vein injection, week 8. The procedure: as §1
The rats with liver tumors were given normal saline, an injection solution containing arsenic trioxide without neutron irradiation treatment (concentration: 1 mg/ml; animal injection dosage: 0.45 mg/kg), and the injection solution prepared in Example 1 which contained radioactive arsenic trioxide having subjected to neutron irradiation treatment(radioactivity range: 2.77-3.25 mCi/ml; concentration: 1 mg/ml; and animal injection dosage: 0.45 mg/kg), respectively, via tail vein injection, and the injection was continued for two weeks.
Before injection, the size of the liver tumors was examined by ultrasonic scanning. Ultrasonic scanning was conducted in the first week, the second week, and the fifth week, respectively, after start of the injection so as to observe the change in size of the tumor. Finally, the rats were sacrificed for observing whether there was metastasis.

In data set [4] the test system is N1-S1 rat hepatoma cells. Nature of the data set: Therapeutic effect assessment: hepatic artery single injection, rats with liver tumors. The class given is in vivo, Spawn-Dawley rats. The note with it: for Therapeutic effect (in words): hepatic artery single injection. The procedure:
as §1
The blood vessels of the hepatic artery were dissected from the hepatic tissue of the rats by surgery, and normal saline, an injection solution containing arsenic trioxide without neutron irradiation treatment (concentration: 1 mg/ml; and animal injection dosage: 0.45 mg/kg), and the injection solution prepared in Example 1 which contained radioactive arsenic trioxide having subjected to neutron irradiation treatment (radioactivity range: 2.77-3.25 mCi/ml; concentration: 1 mg/ml; and animal injection dosage: 0.45 mg/kg dose), were injected respectively via the hepatic artery in single injections.
as §2

In data set [5] the test system is human cervical cancer cells. The note with it: in vitro and in vivo, cervical cancer (Yong-Jin Chun et al. 2002); cited from earlier work.
Data set [6] has as its system liver tumor. The note with it: 2 mg/kg for 10 consecutive days (Lin et al. 1999); cited from earlier work.
Data set [7] in a line: Biodistribution test and radiation absorption dose (MIRD method) in rats with liver tumors. The note with it: for Radiation absorption dose, Intestine / Radiation absorption dose, Kidney / Radiation absorption dose, Liver / Radiation absorption dose, Lung / Radiation absorption dose, Muscle / Radiation absorption dose, Spleen / Radiation absorption dose, Tumor: 0.45 mg/kg. The class given is in vivo. The procedure: The hepatic artery was dissected from the hepatic tissue of the rats by surgery. A PE-10 tube was introduced into the hepatic artery, and the test solution containing neutron-irradiated arsenic trioxide as prepared in Example 1 was injected into the hepatic artery. The PE-10 tube was removed after injection, and a surgical thread was used to bind and fix the blood vessels, followed by suturing of the wound.
The test injection solution containing neutron-irradiated arsenic trioxide as prepared in Example 1 was injected into the tail vein using a syringe with needle no. 25.
A fixed amount of radioactive arsenic trioxide (radioactivity range: 2.77-3.25 mCi/ml, concentration: 1 mg/ml, animal injection dose: 0.45 mg/kg) prepared in Example 1 was injected into the rats with liver tumors through the hepatic artery and tail vein, respectively.
The rats were sacrificed by taking a large amount of blood from the heart at hours 2, 4, 16, 24 and 48, respectively, after injection, and the blood, hearts, lungs, livers, spleens, kidneys, intestines, bladders, muscles, and tumors were removed. These tissues or organs were placed in respective tubes, and their irradiation intensity was measured by a gamma counter (Wallac 1470 WIZARD) . The content percentage of arsenic trioxide per each gram of the tissue or organ was calculated using standard curve regression. There were two or three experimented rats in each experimental group.
Radioactive arsenic trioxide was injected respectively into the tail vein and hepatic artery of the rats by I.V. and I.H. The dosage was calculated using MIRD method, and the residence time in each of the organs and the tumors was calculated using Excel software. Finally, the radiation absorption dose in each of the organs or tissues and the tumors was calculated using MIROSE 3 software. Table 3. Radiation absorption dose in each of the organs or tissues and the tumors after injection of radioactive arsenic trioxide into the animals through the tail vein and hepatic artery, respectively, by I.V. and I.H.

[8] abbreviates: 0.45 mg/kg hepatic artery single injection, single animals.

As for `S1[As]2S[As]3S[As]2S[As]13` [tetraarsenic tetraslfide], the complete remission rates in data set [1] (other arsenic-containing substances (Wang Z.Y. 2001)) is listed as 84.9%.

For the compound arsenic trioxide [reference compound], in data set [2], the Response entry is “Poor and Good (decrease in size of tumor to 50% or more or disappearance of tumor is classified as "Good Response.") and Mild (decrease in size of tumorwithin 0%∼40% is classified as "MildResponse")”; the “Survival time” value is greater than 30 days. Further, in data set [3], the Response result was “Poor (3×) and Mild (decrease in size of tumorwithin 0%∼40% is classified as "MildResponse") (2×)”; the “Survival time” value is 14 day (2×) and 42 day and 7 day and 40 day; the “Effect on the inhibition of tumor growth (in words)” value is given as “not significant”; the “Survival of the rats (in words)” value was “still alive in week 8”. Further, in data set [4] (setting [8]), the Response entry was “Mild (decrease in size of tumorwithin 0%∼40% is classified as "MildResponse") (2×) and Poor (2×)”; the “Survival time” value was >42 day (2×) and 36 day and 39 day. Also, the “Therapeutic effect (in words)” value in data set [4] was “not satisfactory”. In addition, in data set [5], the “Effect of combined treatment with ionizing radiation (in words)” value is “synergistic effect”. The “Effect of combination with other drugs (in words)” value in data set [1] (combination with other drugs (such as GM-CSF), relapsed or ATRA resistant acute promyelocytic leukemia (Muto A et al. 2001)) is reported as “synergistic therapeutic effect”. For the same compound, the “complete remission (CR) rate” value in data set [1] (intravenously at a dose of 10 mg/d, relapsed acute promyelocytic leukemia (Shen Z.X. et al. 1997)) is recorded as 90%. Besides, in data set [1] (low-dose, intravenously, daily dose of 0.08 mg/kg for 28 days (Shen Y et al. 2001)), the complete remission rate was 80%. For the same compound, the “life of the mice extended to” value in data set [6] was 127.2%.

For the compound radioactive arsenic trioxide, in data set [7] (IH (hepatic artery)), the “Radiation absorption dose, Intestine” value turned out to be 0.23 mGy/MBq; the “Radiation absorption dose, Kidney” value was found to be 0.28 mGy/MBq; the “Radiation absorption dose, Liver” value came out at 0.21 mGy/MBq; the “Radiation absorption dose, Lung” value was found to be 0.56 mGy/MBq. Also, in data set [7] (IH (hepatic artery)), the “Radiation absorption dose, Muscle” value was found to be 0.12 mGy/MBq; the “Radiation absorption dose, Spleen” value is given as 0.95 mGy/MBq; the “Radiation absorption dose, Tumor” value came out at 21 mGy/MBq. Moreover, in data set [7] (IV (tail vein)), the “Radiation absorption dose, Intestine” value was found to be 0.16 mGy/MBq; the “Radiation absorption dose, Kidney” value was 0.25 mGy/MBq; the “Radiation absorption dose, Liver” value worked out at 0.13 mGy/MBq; the “Radiation absorption dose, Lung” value stood at 0.47 mGy/MBq. Also, in data set [7] (IV (tail vein)), the “Radiation absorption dose, Muscle” value worked out at 0.06 mGy/MBq; the “Radiation absorption dose, Spleen” value came to 0.76 mGy/MBq; the “Radiation absorption dose, Tumor” value stood at 4.26 mGy/MBq. Besides, the “Contents of the radioactive arsenic trioxide in the heart, the lung, and the spleen” value in data set [7] (hepatic artery and tail vein injection, hours 2-48 (Figure 3)) is 1-3 % ID/g. Moreover, in data set [2], the Response result is recorded as “Good (decrease in size of tumor to 50% or more or disappearance of tumor is classified as "Good Response.")” and the “Survival time” value was greater than 30 days. In addition, in data set [2] (direct injection into the liver tumors, 4 weeks), the “Change of tumor size (in words)” value is on record as “the tumors in all of the animals shrank”. Also, in data set [3], the Response entry was “Good (decrease in size of tumor to 50% or more or disappearance of tumor is classified as "Good Response.")”, the “Survival time” value is greater than 56 days, the “Effect on the inhibition of tumor growth (in words)” value was “most noticeable” and the “Survival of the rats (in words)” value is given as “all alive in week 8”. Also, in data set [4] (setting [8]), the Response entry is given as “Good (decrease in size of tumor to 50% or more or disappearance of tumor is classified as "Good Response.")”, the “Survival time” value is greater than 42 days, the “Tumor size After injection Week 2” value was “Disappeared” and the “Tumor size After injection Week 5” value was “Disappeared”. Also, the “Therapeutic effect (in words)” value in data set [4] is “complete disappearance of the tumors in some of the animals 2 weeks after injection”.
